Experimental data as given in paper PMC2062954, “Microencapsulated octreotide pamoate in advanced gastrointestinal and pancreatic cancer: a phase I study” (British Journal of Cancer, 1998).

Assay: Plasma octreotide levels by RIA
Assay type: in vivo, human
Experimental: Norway Summary Fourteen patients suffering from advanced colorectal (n = 7), pancreatic (n = 4) or gastric (n = 3) carcinomas received treatment with microencapsulated octreotide pamoate 90 mg i.m. every 4 weeks (n = 4), 160 mg i.m. every 4 weeks (n = 4) or 160 mg i.m. every 2 weeks (n = 6). […] In this study we evaluate the tolerability. clinical effects, pharmacokinetics and effects on plasma IGF-I and -II of a new microencapsulated formulation of octreotide pamoate in patients suffering from gastrointestinal and pancreatic carci- nomas. […] Thus. apart from deter- mining plasma IGF-I and -HI together with IGFBP-1 and -3 with radioimmunoassay (RIA). we measured IGFBPs using Western ligand blotting and the functional status of IGFBP-3 using immunoblotting. […] PATIENTS AND METHODS Patients Fourteen patients (eight men and six A-omen) with progressive locally advanced and/or metastatic adenocarcinomas of abdominal origin were studied (Table 1). Any other svstemic anti-cancer therapy had been terminated at least 4 weeks before inclusion in the study.

C[C@@H](O)[C@@H]1NC(=O)[C@H](CCCCN)NC(=O)[C@@H](Cc2c[nH]c3ccccc23)NC(=O)[C@H](Cc2ccccc2)NC(=O)[C@@H](NC(=O)[C@H](N)Cc2ccccc2)CSSC[C@@H](C(=O)N[C@H](CO)[C@@H](C)O)NC1=O [octreotide]
ratio of peak octreotide level at first day of injection to plasma level just before the next injection (all cohorts, i.m. depot, range, generally two to five times higher, data not shown): 2.2-9.9
lowest plasma level of octreotide observed at any time during treatment (individual patients, all cohorts, RIA): 3.4 ng/mL
highest plasma octreotide level (one patient in cohort 3 (160 mg i.m. every 2 weeks), long-term treatment > 6 months, at day 13, subsequent gradual decline): 98.9 ng/mL
